Measurements published in paper PMC6063448, “Antimicrobial activity of linear lipopeptides derived from BP100 towards plant pathogens” (PLoS ONE, 2018).

Experiments:
[1] = system: Erwinia amylovora PMV6076; experiment: MIC, growth inhibition in microtiter plates (TSB); type: cell-based; conditions: Ea, 25°C, 48 h, OD 600 nm, lowest concentration with no growth, given as interval of tested concentrations, three replicates, experiment repeated twice
Excerpt: (§1) The following plant pathogenic bacterial strains were used: Erwinia amylovora PMV6076 (Institut National de la Recherche Agronomique, Angers, France), Pseudomonas syringae pv. syringae EPS94 (Institut de Tecnologia Agroalimentària, Universitat de Girona, Spain), Xanthomonas axonopodis pv. vesicatoria 2133–2, Pseudomonas syringae pv. actinidiae Psa3700.1.1, Xanthomonas fragariae Xf349-9A (Instituto Valenciano de Investigaciones Agrarias, Valencia, Spain), and Xanthomonas arboricola pv. pruni CFBP5563 (Collection Française de Bactéries associées aux Plantes, Angers, France). All bacteria except for X. fragariae were stored in Luria Bertani (LB) broth supplemented with glycerol (20%) and maintained at -80°C. For X. fragariae, Medium B [46] was used instead of LB. E. amylovora, X. arboricola pv. pruni, P. syringae pv. syringae and P. syringae pv. actinidiae were scrapped from the agar media after growing for 24 h at 25°C, and X. axonopodis pv. vesicatoria and X. fragariae after growing for 48 h at 25°C. The cell material was suspended in sterile water to obtain a suspension of 10^8 CFU mL^-1.
(§2) Lyophilized peptides were solubilized in sterile Milli-Q water to a final concentration of 1 mM and filter sterilized through a 0.22-μm pore filter. […] For antibacterial activity 20 μL of each dilution were mixed in a microtiter plate well with 20 μL of the corresponding suspension of the bacterial indicator, 160 μL of Trypticase Soy Broth (TSB) (BioMèrieux, France) to a total volume of 200 μL. For antifungal activity 20 μL of each stock solution were mixed in a microtiter plate well with 80 μL of the corresponding suspension of the fungal pathogen and 100 μL of double concentrated Potato Dextrose Broth (PDB) to a total volume of 200 μL containing 0.003% w/v of chloramphenicol to prevent bacterial contamination.
(§3) Three replicates for each combination of strain, compound and concentration were used. Microbial growth was determined by optical density measurement at 600 nm (Bioscreen C, Labsystem, Helsinki, Finland). For antibacterial activity microplates were incubated at 25°C with 20 s shaking before hourly absorbance measurement for 48 h. For antifungal activity microplates were incubated at 22°C with 1 min shaking before absorbance measurement that were done every two hours during seven days. The experiment was repeated twice. The MIC was taken as the lowest compound concentration with no growth at the end of the experiment.

[2] = system: Xanthomonas axonopodis pv. vesicatoria 2133–2; experiment: MIC, growth inhibition in microtiter plates (TSB); type: cell-based; conditions: Xav, 25°C, 48 h, OD 600 nm, lowest concentration with no growth, given as interval of tested concentrations, three replicates, experiment repeated twice
Excerpt: as §1, §2, §3

[3] = system: Pseudomonas syringae pv. actinidiae Psa3700.1.1; experiment: MIC, growth inhibition in microtiter plates (TSB); type: cell-based; conditions: Psa, 25°C, 48 h, OD 600 nm, lowest concentration with no growth, given as interval of tested concentrations, three replicates, experiment repeated twice
Excerpt: as §1, §2, §3

[4] = system: Xanthomonas fragariae Xf349-9A; experiment: MIC, growth inhibition in microtiter plates (TSB); type: cell-based; conditions: Xf, 25°C, 48 h, OD 600 nm, lowest concentration with no growth, given as interval of tested concentrations, three replicates, experiment repeated twice
Excerpt: as §1, §2, §3

[5] = system: Pseudomonas syringae pv. syringae EPS94; experiment: MIC, growth inhibition in microtiter plates (TSB); type: cell-based; conditions: Pss, 25°C, 48 h, OD 600 nm, lowest concentration with no growth, given as interval of tested concentrations, three replicates, experiment repeated twice
Excerpt: as §1, §2, §3

[6] = system: Xanthomonas arboricola pv. pruni CFBP5563; experiment: MIC, growth inhibition in microtiter plates (TSB); type: cell-based; conditions: Xap, 25°C, 48 h, OD 600 nm, lowest concentration with no growth, given as interval of tested concentrations, three replicates, experiment repeated twice
Excerpt: as §1, §2, §3

[7] = system: Fusarium oxysporum f. sp. lycopersici FOL 3 race 2; experiment: MIC, antifungal growth inhibition in microtiter plates (PDB); type: cell-based; conditions: Fo, 22°C, seven days, OD 600 nm, lowest concentration with no growth, given as interval of tested concentrations, three replicates, experiment repeated twice
Method: (§4) The following plant pathogenic fungal strains were used: Penicillium expansum EPS26 (Institut de Tecnologia Agroalimentària, Universitat de Girona, Spain) and Fusarium oxysporum f. sp. lycopersici FOL 3 race 2 (ATCC 201829, American Type Culture Collection,Virginia, EEUU). Strains were cultured on potato dextrose agar (PDA) plates (Difco). Conidia from P. expansum and microconidia from F. oxysporum were obtained from 5–7 day-old agar Potato Dextrose (PDA) cultures after growth at 25°C. Inoculum was prepared by scraping spore material from culture surfaces with a cotton swab and resuspending it in distilled water containing 0.5‰ of tween 80. The suspensions were filtered through Miracloth (Merk, Millipore) and the concentration of conidia was determined using a hemacytometer and adjusted to 10^4 conidia mL^-1 for F. oxysporum and to 10^3 conidia mL^-1 for P. expansum.
as §2, §3

[8] = system: Penicillium expansum EPS26; experiment: as above; type: cell-based; conditions: Pe, 22°C, seven days, OD 600 nm, lowest concentration with no growth, given as interval of tested concentrations, three replicates, experiment repeated twice
Method: as §4, §2, §3

[9] = system: defense-related genes in tomato plants; experiment: Induction of defense gene expression of tomato plants (RT-qPCR); type: in vivo, tomato cv. Rio Grande; conditions: tomato leaves sprayed, 24 h; peptides and flg15 125 μM, JA 2.5 mM, ASM 300 mg/L; ΔΔCt relative to actin; above 2 = overexpression
Method: Seeds of tomato cv. Rio Grande plants were sown in hydroponic seed plugs (rockwool), germinated and grown under controlled greenhouse conditions (25 ± 2°C, 16 h light / 15 ± 2°C, 8 h dark, and 60% RH). Two-week old seedlings (two cotyledons) were transplanted into rockwool plugs (7.5×7.5×6.5 cm, Grodan Iberica). The experimental design consisted of three replicates of three plants per treatment. After two weeks, tomato leaves were sprayed with aqueous solutions of BP100, 9 selected derivatives and flg15 at 125 μM, jasmonic acid at 2.5 mM (Sigma-Aldrich, Sant Louis, Missouri, UE), and acybenzolar-S-methyl at 300 mg/L (Syngenta, Basel, Switzerland), until the run-off point. Water-sprayed plants were used as not treated controls. Twenty-four hours after product application leaf samples were collected and processed to extract RNA for RT-qPCR assays. Plant material was ground to a fine powder in liquid nitrogen with the Tissuelyzer II system (Qiagen). Total RNA was extracted from leaves using PureLink Plant RNA Reagent (Invitrogen, Life Technologies) according to the manufacturer’s manual. The RNA was solubilized in RNAse free water and was routinely subjected to DNAse treatment (Ambion® Turbo DNA-free™, Life Technologies) to remove any contaminant DNA. In each step, the RNA was quantified using a Nanodrop N-2000 spectrophotometer, and its integrity verified by denaturing agarose gel electrophoresis. First-strand of complementary DNA (cDNA) was generated from leave RNA using reverse transcriptase (High Capacity cDNA Reverse Transcription Kit, Invitrogen) according to the manufacturer’s manual.
To test gene defense induction in the treated tomato plants, a qPCR assay was performed. Quantitative PCR was carried out in a fluorometric thermal cycler (qPCR Quant Studio 5, Applied Biosystems) by using a Mix SYBR®Green PCR Master Mix (Applied Biosystems). The total reaction volume of this PCR reaction was 20 μL and the reaction mixture was 1 μL of each primer set at the adequate concentration, 10 μL of MixSyber Green, 6 μL of distilled water and 2 μL of cDNA. Melting curve analysis was performed after amplification to verify amplification specificity. A constitutive gene (actin gene) was used as reference control, and the following genes implicated in plant defense response were analyzed: Pathogenesis-related protein-1 (PR1), Harpin (Harp), Polyphenol oxidase (PPO), Subtilisin-like protease (Sub1), Blue copper binding-protein (BCB), Osmotin (Osm2), Acidic β-1,3 endoglucanase (GluA), Lypoxigenase (LOX), Protein inhibitor II (PinII), Dehydrin (Tas14) and Ethylene response transcription factor (ERT3). […] For each gene system, the concentration of the primer pair was optimized. The primer concentration was 100 nM for all the genes except for the GluA, Harp, PR1 and actin genes which optimized concentration was 300 nM. A calibration curve was prepared by cloning the corresponding DNA in the pSpark cloning vector (Canvax, Córdoba, Spain) according to the manufacturer instructions, which was then used to transform E. coli DH5α by standard procedures. The number of plasmid copies were quantified after purification from E. coli (QIAGEN Iberia, S. L., Madrid, Spain), and appropriate dilutions were prepared to obtain the standard curve. […] Relative quantification of gene expression was done using the ΔΔCt method. Each biological repetition treatment was analyzed in duplicate. The mean of the Ct values obtained were used to estimate the fold change value of the endogenous reference gene (actin) and the target plant defense genes.

Compound | MIC [1] | MIC [2] | MIC [3] | MIC [4] | MIC [5] | MIC [6] | MIC [7] | MIC [8] | BCB gene expression, fold induction [9] | ERT3 gene expression, fold induction [9] | GluA gene expression, fold induction [9] | Harp gene expression, fold induction [9] | LOX gene expression, fold induction [9] | Osm2 gene expression, fold induction [9] | PPO gene expression, fold induction [9] | PR1 gene expression, fold induction [9] | PinII gene expression, fold induction [9] | Sub1 gene expression, fold induction [9] | Tas14 gene expression, fold induction [9]
CCCCCCCCCCCC(=O)NCCCC[C@H](NC(=O)[C@H](CCCCN)NC(=O)[C@H](CC(C)C)NC(=O)[C@@H](NC(=O)[C@H](CCCCN)NC(=O)[C@H](CCCCN)NC(=O)[C@H](Cc1ccccc1)NC(=O)[C@H](CC(C)C)NC(=O)[C@H](CCCCN)NC(=O)[C@H](CCCCN)NC(C)=O)[C@@H](C)CC)C(=O)N[C@@H](CC(C)C)C(N)=O [BP401, Ac-KKLFKKILKK(COC11H23)L-NH2] | >25 µM | 0.8 to 1.6 µM | 6.2 to 12.5 µM | 3.1 to 6.2 µM | 6.2 to 12.5 µM | 1.6 to 3.1 µM | 6.2 to 12.5 µM | 12.5 to 25 µM |  |  |  |  |  |  |  |  |  |  | 
CCCC(=O)NCCCC[C@H](NC(=O)[C@H](CCCCN)NC(=O)[C@H](CCCCN)NC(C)=O)C(=O)N[C@@H](Cc1ccccc1)C(=O)N[C@@H](CCCCN)C(=O)N[C@@H](CCCCN)C(=O)N[C@H](C(=O)N[C@@H](CC(C)C)C(=O)N[C@@H](CCCCN)C(=O)N[C@@H](Cc1ccc(O)cc1)C(=O)N[C@@H](CC(C)C)C(N)=O)[C@@H](C)CC [BP382, Ac-KKK(COC3H7)FKKILKYL-NH2] | 6.2 to 12.5 µM | 6.2 to 12.5 µM | 6.2 to 12.5 µM | 1.6 to 3.1 µM | 6.2 to 12.5 µM | 6.2 to 12.5 µM | 0.8 to 1.6 µM | 3.1 to 6.2 µM |  |  |  |  |  |  |  |  |  |  | 
CCCC(=O)N[C@@H](CCCCN)C(=O)N[C@@H](CCCCN)C(=O)N[C@@H](CC(C)C)C(=O)N[C@@H](Cc1ccccc1)C(=O)N[C@@H](CCCCN)C(=O)N[C@@H](CCCCN)C(=O)N[C@H](C(=O)N[C@@H](CC(C)C)C(=O)N[C@@H](CCCCN)C(=O)N[C@@H](Cc1ccc(O)cc1)C(=O)N[C@@H](CC(C)C)C(N)=O)[C@@H](C)CC [BP379, C3H7CO-KKLFKKILKYL-NH2] | 3.1 to 6.2 µM | 3.1 to 6.2 µM | 3.1 to 6.2 µM | 3.1 to 6.2 µM | 3.1 to 6.2 µM | 3.1 to 6.2 µM | 3.1 to 6.2 µM | 6.2 to 12.5 µM |  |  |  |  |  |  |  |  |  |  | 
CCCC(=O)NCCCC[C@H](NC(=O)[C@H](CC(C)C)NC(=O)[C@@H](NC(=O)[C@H](CCCCN)NC(=O)[C@H](CCCCN)NC(=O)[C@H](Cc1ccccc1)NC(=O)[C@H](CC(C)C)NC(=O)[C@H](CCCCN)NC(=O)[C@H](CCCCN)NC(C)=O)[C@@H](C)CC)C(=O)N[C@@H](Cc1ccc(O)cc1)C(=O)N[C@@H](CC(C)C)C(N)=O [BP388, Ac-KKLFKKILK(COC3H7)YL-NH2] | 3.1 to 6.2 µM | 1.6 to 3.1 µM | 6.2 to 12.5 µM | 1.6 to 3.1 µM | 6.2 to 12.5 µM | 3.1 to 6.2 µM | 0.8 to 1.6 µM | 6.2 to 12.5 µM |  |  |  |  |  |  |  |  |  |  | 
CSC(=O)c1cccc2nnsc12 [ASM, acybenzolar-S-methyl, reference compound] |  |  |  |  |  |  |  |  | 12.1 | 2.9 | 5.9 | 6.3 | 3.3 | 8.7 | 2.9 | 4.8 | 0.5 | 11.6 | 10.7
CCCC(=O)NCCCC[C@H](NC(=O)[C@H](CCCCN)NC(=O)[C@H](CCCCN)NC(=O)[C@H](Cc1ccccc1)NC(=O)[C@H](CC(C)C)NC(=O)[C@H](CCCCN)NC(=O)[C@H](CCCCN)NC(C)=O)C(=O)N[C@@H](CC(C)C)C(=O)N[C@@H](CCCCN)C(=O)N[C@@H](Cc1ccc(O)cc1)C(=O)N[C@@H](CC(C)C)C(N)=O [BP386, Ac-KKLFKKK(COC3H7)LKYL-NH2] | 12.5 to 25 µM | 12.5 to 25 µM | 6.2 to 12.5 µM | 12.5 to 25 µM |  | 12.5 to 25 µM | 12.5 to 25 µM | >25 µM |  |  |  |  |  |  |  |  |  |  | 
CC/C=C\C[C@H]1C(=O)CC[C@@H]1CC(=O)O [JA, jasmonic acid, reference compound] |  |  |  |  |  |  |  |  | 6.6 | 41.3 | 0.2 | 1.9 | 9.7 | 48.4 | >50 | 2.9 | >50 | 3.9 | 0.88
